Results on 20 molecules are retold here after patent US20260226068A1, “IMIDAZOTRIAZINE IL-17A MODULATORS AND USES THEREOF” (DICE ALPHA, INC., priority 2023, published 2026).

In one experiment the target is T1, IL-17A/A (Homo sapiens, UniProt Q16552).
T1 construct: purchased Genscript Z03228
T1 sequence (Q16552 24-155): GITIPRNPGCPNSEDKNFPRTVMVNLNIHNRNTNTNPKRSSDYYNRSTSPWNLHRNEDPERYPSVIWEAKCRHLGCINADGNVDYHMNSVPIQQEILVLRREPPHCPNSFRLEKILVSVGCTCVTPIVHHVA
As to the kind of experiment: IL-17A/A HEK-Blue cell assay (SEAP reporter). Type of experiment: cell-based. Conditions: HEK-Blue IL-17A reporter cells, IL17A/A 5 ng/mL, 20 hours, SEAP read at A630; read-out: HEK-Blue IL17AA (IC50 for IL-17A/A inhibition).

The next experiment concerns the target T2, IL-17A/F (Homo sapiens, UniProt Q16552+Q96PD4).
T2 construct: purchased R&D Systems
T2 sequence (Q16552 24-155): T1 sequence (Q16552 24-155)
T2 sequence (Q96PD4 31-163): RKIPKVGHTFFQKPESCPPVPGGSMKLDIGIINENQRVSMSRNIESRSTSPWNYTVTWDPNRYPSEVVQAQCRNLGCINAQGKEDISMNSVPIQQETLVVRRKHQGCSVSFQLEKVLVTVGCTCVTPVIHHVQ
As to the kind of experiment: IL-17A/F HEK-Blue cell assay (SEAP reporter). Type of experiment: cell-based. The note with it: HEK-Blue IL-17A reporter cells, IL17A/F 5 ng/mL, 20 hours, SEAP read at A630; read-out: HEK-Blue IL17AF (IC50 for IL-17A/F inhibition).

On to `Cn1nccc1C(=O)N[C@H](c1cn2nc(C[C@H]3C[C@@H](C(F)(F)F)CNC3=O)c(C3CCOCC3)nc2n1)[C@H]1CC[C@H](C)CC1` [Compound 218, 1-methyl-N—((S)-((1r,4S)-4-methylcyclohexyl)(2-(((3R,5R)-2-oxo-5-(trifluoromethyl)piperidin-3-yl)methyl)-3-(tetrahydro-2H-pyran-4-yl)imidazo[1,2-b][1,2,4]triazin-6-yl)methyl)-1H-pyrazole-5-carboxamide], for which the IC50 on IL-17A/A and on IL-17A/F was less than 100 nM in each case.

For the molecule `CCn1nccc1C(=O)N[C@H](c1cn2nc(CC3CC(F)(F)CNC3=O)c(N3CCOCC3)nc2n1)C1CCC(F)(F)CC1` (single isomer, unassigned) [Compound 64], the results for the IC50 on IL-17A/A and at IL-17A/F were less than 100 nM and greater than 1000 nM, respectively.

Consider `CCn1nccc1C(=O)N[C@H](c1cn2nc(C[C@H]3C[C@@H](C(F)(F)F)CNC3=O)c(N3C[C@@H](C)O[C@H](C)C3)nc2n1)C1CCC(F)(F)CC1` [Compound 241, N—((S)-(4,4-difluorocyclohexyl)(3-((2R,6R)-2,6-dimethylmorpholino)-2-(((3R,5R)-2-oxo-5-(trifluoromethyl)piperidin-3-yl)methyl)imidazo[1,2-b][1,2,4]triazin-6-yl)methyl)-1-ethyl-1H-pyrazole-5-carboxamide], for which the IC50 at IL-17A/A and at IL-17A/F was less than 100 nM in each case.

For the molecule `CCn1nccc1C(=O)N[C@H](c1cn2nc(C[C@H]3C[C@@H](C(F)(F)F)CNC3=O)c([C@H]3CCC(C)(C)OC3)nc2n1)C1CCC(F)(F)CC1` (single isomer, unassigned) [Compound 258], the IC50 at IL-17A/A was less than 100 nM; on IL-17A/F, 100 to 1000 nM.

Regarding `O=C(N[C@H](c1cn2nc(CC3C[C@@H](C(F)(F)F)CNC3=O)cnc2n1)C1CCC(F)(F)CC1)c1conc1C(F)(F)F` (stereo partly drawn) [Compound 10, N—((S)-(4,4-difluorocyclohexyl)(2-(((5R)-2-oxo-5-(trifluoromethyl)piperidin-3-yl)methyl)imidazo[1,2-b][1,2,4]triazin-6-yl)methyl)-3-(trifluoromethyl)isoxazole-4-carboxamide], the IC50 is 100 to 1000 nM on IL-17A/A and greater than 1000 nM at IL-17A/F.

For `CCn1ncnc1C(=O)N[C@H](c1cn2nc(C[C@H]3C[C@@H](C(F)(F)F)CNC3=O)c(C3CCOCC3)nc2n1)C1CCCC(F)(F)C1` (stereo in doubt) [Compound 384, N—((S)—((S)-3,3-difluorocyclohexyl)(2-(((3R,5R)-2-oxo-5-(trifluoromethyl)piperidin-3-yl)methyl)-3-(tetrahydro-2H-pyran-4-yl)imidazo[1,2-b][1,2,4]triazin-6-yl)methyl)-1-ethyl-1H-1,2,4-triazole-5-carboxamide], the IC50 at IL-17A/A was less than 100 nM; at IL-17A/F, greater than 1000 nM.

As for `CCn1nccc1C(=O)N[C@H](c1cn2nc(C[C@H]3C[C@@H](C(F)(F)F)CNC3=O)c(C3CCOCC3)nc2n1)[C@@H]1CC[C@@H]2C[C@@H]2CC1` (single isomer, unassigned) [Compound 293], the IC50 at IL-17A/A and at IL-17A/F was less than 100 nM each time.

Take `Cc1nonc1C(=O)N[C@H](c1cn2nc(C[C@H]3C[C@@H](C(F)(F)F)CNC3=O)c(C3CCOCC3)nc2n1)C1CC2(C1)CC(F)(F)C2` [Compound 314, N—((S)-(6,6-difluorospiro[3.3]heptan-2-yl)(2-(((3R,5R)-2-oxo-5-(trifluoromethyl)piperidin-3-yl)methyl)-3-(tetrahydro-2H-pyran-4-yl)imidazo[1,2-b][1,2,4]triazin-6-yl)methyl)-4-methyl-1,2,5-oxadiazole-3-carboxamide]: the IC50 on IL-17A/A is less than 100 nM; at IL-17A/F, greater than 1000 nM.

As to `CC(C)n1nccc1C(=O)N[C@H](c1cn2nc(C[C@H]3C[C@@H](C(F)(F)F)CNC3=O)c(C3CCOCC3)nc2n1)[C@@H]1CCCC(F)(F)C1` [Compound 127, N-((1S)—((R)-3,3-difluorocyclohexyl)(2-(((3R,5R)-2-oxo-5-(trifluoromethyl)piperidin-3-yl)methyl)-3-(tetrahydro-2H-pyran-4-yl)imidazo[1,2-b][1,2,4]triazin-6-yl)methyl)-1-isopropyl-1H-pyrazole-5-carboxamide], the IC50 was less than 100 nM on IL-17A/A and 100 to 1000 nM on IL-17A/F.

In the case of `Cn1nccc1C(=O)N[C@H](c1cn2nc(C[C@H]3C[C@@H](C(F)(F)F)CNC3=O)c(C3CCOCC3)nc2n1)C1CCCCC1` [Compound 405], the IC50 is less than 100 nM on IL-17A/A and 100 to 1000 nM on IL-17A/F.

Turning to `CCn1nccc1C(=O)N[C@H](c1cn2nc(C[C@H]3C[C@@H](C(F)(F)F)CNC3=O)c(CNC)nc2n1)C1CCC(F)(F)CC1` [Compound 286, N—((S)-(4,4-difluorocyclohexyl)(3-((methylamino)methyl)-2-(((3R,5R)-2-oxo-5-(trifluoromethyl)piperidin-3-yl)methyl)imidazo[1,2-b][1,2,4]triazin-6-yl)methyl)-1-ethyl-1H-pyrazole-5-carboxamide], the results for the IC50 at IL-17A/A and at IL-17A/F were 100 to 1000 nM and greater than 1000 nM, respectively.

Consider `CCc1nonc1C(=O)N[C@H](c1cn2nc(C[C@H]3C[C@@H](C(F)(F)F)CNC3=O)cnc2n1)C1CCC(F)(F)CC1` [Compound 35], for which the IC50 is 100 to 1000 nM at IL-17A/A and greater than 1000 nM on IL-17A/F.

In the case of `CCn1nccc1C(=O)N[C@H](c1cn2nc(C[C@H]3C[C@@H](C(F)(F)F)CNC3=O)c(N3CC4CC(C3)N4C)nc2n1)C1CCC(F)(F)CC1` [Compound 360, N-((1S)-(4,4-difluorocyclohexyl)(3-(6-methyl-3,6-diazabicyclo[3.1.1]heptan-3-yl)-2-(((3R,5R)-2-oxo-5-(trifluoromethyl)piperidin-3-yl)methyl)imidazo[1,2-b][1,2,4]triazin-6-yl)methyl)-1-ethyl-1H-pyrazole-5-carboxamide], the IC50 on IL-17A/A and at IL-17A/F was 100 to 1000 nM each time.

Consider `CC(C)n1nccc1C(=O)N[C@H](c1cn2nc(CC3C[C@@H](C(F)(F)F)CNC3=O)c(N3CCOCC3)nc2n1)C1CCC(F)(F)CC1` (single isomer, unassigned) [Compound 80], for which the values for the IC50 at IL-17A/A and on IL-17A/F were less than 100 nM and greater than 1000 nM, respectively.

For `CCn1nccc1C(=O)N[C@H](c1cn2nc(C[C@H]3C[C@@H](C(F)(F)F)CNC3=O)c(CN(C)C)nc2n1)C1CCC(F)(F)CC1` [Compound 287, N—((S)-(4,4-difluorocyclohexyl)(3-((dimethylamino)methyl)-2-(((3R,5R)-2-oxo-5-(trifluoromethyl)piperidin-3-yl)methyl)imidazo[1,2-b][1,2,4]triazin-6-yl)methyl)-1-ethyl-1H-pyrazole-5-carboxamide], the IC50 at IL-17A/A was 100 to 1000 nM; at IL-17A/F, greater than 1000 nM.

`CCn1nccc1C(=O)N[C@H](c1cn2nc(C[C@H]3C[C@@H](C(F)(F)F)CNC3=O)c(N3CCN(C(=O)OC(C)(C)C)[C@@H](C)C3)nc2n1)C1CCC(F)(F)CC1` [Compound 238, tert-butyl (S)-4-(6-((S)-(4,4-difluorocyclohexyl)(1-ethyl-1H-pyrazole-5-carboxamido)methyl)-2-(((3R,5R)-2-oxo-5-(trifluoromethyl)piperidin-3-yl)methyl)imidazo[1,2-b][1,2,4]triazin-3-yl)-2-methylpiperazine-1-carboxylate]: the IC50 at IL-17A/A and on IL-17A/F was 100 to 1000 nM in each case.

On to `CCn1nccc1C(=O)N[C@H](c1cn2nc(C[C@H]3C[C@@H](C(F)(F)F)CNC3=O)c(C3CNC3)nc2n1)C1CCC(F)(F)CC1` [Compound 301, N—((S)-(3-(azetidin-3-yl)-2-(((3R,5R)-2-oxo-5-(trifluoromethyl)piperidin-3-yl)methyl)imidazo[1,2-b][1,2,4]triazin-6-yl)(4,4-difluorocyclohexyl)methyl)-1-ethyl-1H-pyrazole-5-carboxamide], for which the IC50 was less than 100 nM at IL-17A/A and greater than 1000 nM on IL-17A/F.

Regarding `CCn1nccc1C(=O)N[C@H](c1cn2nc(C[C@H]3C[C@@H](C(F)(F)F)CNC3=O)c(C34COCC(C3)C4)nc2n1)C1CCC(F)(F)CC1` [Compound 253, N—((S)-(3-(3-oxabicyclo[3.1.1]heptan-1-yl)-2-(((3R,5R)-2-oxo-5-(trifluoromethyl)piperidin-3-yl)methyl)imidazo[1,2-b][1,2,4]triazin-6-yl)(4,4-difluorocyclohexyl)methyl)-1-ethyl-1H-pyrazole-5-carboxamide], the IC50 is less than 100 nM at IL-17A/A and 100 to 1000 nM at IL-17A/F.

For `CCc1nonc1C(=O)N[C@H](c1cn2nc(C[C@H]3C[C@@H](C(F)(F)F)CNC3=O)c(C3CCOCC3)nc2n1)[C@H]1C[C@H](C2CC2)C1` [Compound 319, N—((S)-((1r,3S)-3-cyclopropylcyclobutyl)(2-(((3R,5R)-2-oxo-5-(trifluoromethyl)piperidin-3-yl)methyl)-3-(tetrahydro-2H-pyran-4-yl)imidazo[1,2-b][1,2,4]triazin-6-yl)methyl)-4-ethyl-1,2,5-oxadiazole-3-carboxamide], the results for the IC50 at IL-17A/A and at IL-17A/F were less than 100 nM and greater than 1000 nM, respectively.

For `CCn1nccc1C(=O)N[C@H](c1cn2nc(C[C@H]3C[C@@H](C(F)(F)F)CNC3=O)c(C3CCOC3)nc2n1)[C@@H]1CCCC(F)(F)C1` (single isomer, unassigned) [Compound 72], the figures for the IC50 at IL-17A/A and at IL-17A/F were less than 100 nM and 100 to 1000 nM, respectively.
